The values below come from patent US12227498B2, “Heterocyclic amine derivative and pharmaceutical composition comprising same” (Daewoong Pharmaceutical Co., Ltd., priority 2018, dated 2025).

The structures appear in SMILES notation.

Assay [1] has as its target T1, ITK (Homo sapiens, UniProt Q08881).
T1 construct: purchased Promega Corporation
T1 sequence (Q08881 1-620): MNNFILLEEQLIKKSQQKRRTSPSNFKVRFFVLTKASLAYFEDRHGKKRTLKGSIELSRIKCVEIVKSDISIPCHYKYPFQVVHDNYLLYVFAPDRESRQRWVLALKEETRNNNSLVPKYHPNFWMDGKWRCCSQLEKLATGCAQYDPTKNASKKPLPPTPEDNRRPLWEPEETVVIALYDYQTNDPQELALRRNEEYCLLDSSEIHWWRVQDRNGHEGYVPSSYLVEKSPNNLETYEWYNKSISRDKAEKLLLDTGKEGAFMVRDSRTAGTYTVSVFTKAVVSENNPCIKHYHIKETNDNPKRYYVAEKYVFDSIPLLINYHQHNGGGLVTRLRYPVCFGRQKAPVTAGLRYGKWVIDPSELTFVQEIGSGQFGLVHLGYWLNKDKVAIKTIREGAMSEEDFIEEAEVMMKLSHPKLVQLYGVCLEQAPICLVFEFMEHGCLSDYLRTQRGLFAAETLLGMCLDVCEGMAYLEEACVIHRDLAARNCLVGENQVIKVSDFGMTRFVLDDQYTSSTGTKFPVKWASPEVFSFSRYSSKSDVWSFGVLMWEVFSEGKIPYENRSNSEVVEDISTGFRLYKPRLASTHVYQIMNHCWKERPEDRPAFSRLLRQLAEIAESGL
Briefly: Inhibitory activity against ITK, ADP-Glo + ITK Kinase enzyme system kit (Promega). The conditions noted are these: ITK enzyme 0.4 ng/μl; 15 min preincubation at room temperature; 1 hour at 30° C.; luminescence; duplicate. The format is biochemical. The protocol: (§1) Inhibitory activities against BTK and ITK were measured for the compounds prepared in the above Examples as follows.
The inhibitory activity against ITK was evaluated using ‘ADP-Glo™+ITK Kinase enzyme system’ kit (Promega Corporation). […] To the plate on which reactions were completed, 5 μl of substrate and 5 μl of ATP prepared so as to have a final concentration of […] were added and then allowed to react at 30° C. for 1 hour. All wells of the plate were treated with 25 μl of ADP-Glo™ reagent and then allowed to react at 30° C. for 40 minutes. After that, all wells were treated with 50 μl of kinase detection buffer, and then allowed to react at 30° C. for 30 minutes under light shielding conditions. For the plate on which all reactions were completed, luminescence was measured and the results were calculated. Evaluation was carried out in duplicate, and negative control and positive control were calculated depending on whether or not the enzyme was added without treatment of the compound. The IC50 was calculated based on the calculated values.
(ADP-Glo first removes unused ATP, then detects ADP through luciferase.)

The target in assay [2] is T2, BTK (Homo sapiens, UniProt Q06187).
T2 construct: purchased Promega Corporation
T2 sequence (Q06187 whole entry): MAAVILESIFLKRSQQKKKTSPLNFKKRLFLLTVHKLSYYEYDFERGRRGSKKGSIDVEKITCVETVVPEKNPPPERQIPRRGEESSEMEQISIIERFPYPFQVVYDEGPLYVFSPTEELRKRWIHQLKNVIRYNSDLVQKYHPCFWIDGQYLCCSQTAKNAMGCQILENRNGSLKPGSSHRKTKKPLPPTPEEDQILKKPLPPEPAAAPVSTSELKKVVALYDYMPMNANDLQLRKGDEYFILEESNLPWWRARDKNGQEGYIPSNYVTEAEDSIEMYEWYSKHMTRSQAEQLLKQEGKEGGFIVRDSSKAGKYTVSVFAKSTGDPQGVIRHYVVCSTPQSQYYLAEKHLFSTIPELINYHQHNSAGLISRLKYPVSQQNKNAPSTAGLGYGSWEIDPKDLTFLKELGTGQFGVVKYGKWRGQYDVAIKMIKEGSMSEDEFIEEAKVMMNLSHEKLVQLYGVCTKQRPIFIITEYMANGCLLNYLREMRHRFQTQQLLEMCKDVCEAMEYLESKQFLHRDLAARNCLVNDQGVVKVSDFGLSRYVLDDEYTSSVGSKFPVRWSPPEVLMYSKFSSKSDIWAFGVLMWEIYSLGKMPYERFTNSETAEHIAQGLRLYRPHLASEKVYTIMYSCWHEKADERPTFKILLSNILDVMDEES
Briefly: Inhibitory activity against BTK, ADP-Glo + BTK Kinase enzyme system kit (Promega). The format is biochemical. The conditions noted are these: BTK enzyme 1 ng/μl; ATP 10 µM; 15 min preincubation at room temperature; 1 hour at 30° C.; luminescence; duplicate. On the procedure:
as §1
The inhibitory activities against BTK were evaluated using ‘ADP-Glo™+BTK Kinase enzyme system’ kit (Promega Corporation). […] 5 μl of substrate and 5 μl of ATP prepared so as to have a final concentration of 10 µM were added to the plate on which reactions were completed, and then allowed to react at 30° C. for 1 hour. All wells of the plate were treated with 25 μl of ADP-Glo™ reagent and allowed to react at 30° C. for 40 minutes. After that, all wells were treated with 50 μl of kinase detection buffer, and then reacted at 30° C. for 30 minutes under light shielding conditions. For the plate on which all reactions were completed, luminescence was measured and the results were calculated. Evaluation was carried out in duplicate, and negative control and positive control were calculated depending on whether or not the enzyme was added without treatment of the compound. The IC50 was calculated based on the calculated values.

A word on the IC50: it is the concentration that inhibits the measured activity by half.

Turning to `C=CC(=O)N1CCCC(Nc2cc(CN3CCOCC3)cc(Nc3ncc(C)s3)n2)C1` (stereo not shown) [Example 1, 1-(3-((6-((5-methylthiazol-2-yl)amino)-4-(morpholinomethyl)pyridin-2-yl)amino)piperidin-1-yl) prop-2-en-1-one], the IC50 in assay [1] was found to be 4.1 nM; in assay [2], 4.7 nM.

As for `C=CC(=O)N1CCC(Nc2cc(CN3CCOCC3)cc(Nc3ncc(C)s3)n2)C1` (stereo not shown) [Example 2, 1-(3-((6-((5-methylthiazol-2-yl)amino)-4-(morpholinomethyl)pyridin-2-yl)amino)pyrrolidin-1-yl) prop-2-en-1-one], the values for the IC50 in assay [1] and in assay [2] were 2.6 nM and 3.1 nM, respectively.

As to `C=CC(=O)N1CCC(Nc2cc(CN3CCOCC3)cc(Nc3ncc(C)s3)n2)CC1` [Example 3, 1-(4-((6-((5-methylthiazol-2-yl)amino)-4-(morpholinomethyl)pyridin-2-yl)amino)piperidin-1-yl) prop-2-en-1-one], the IC50 in assay [1] worked out at 9.1 nM; in assay [2], 10.3 nM.

In the case of `C=CC(=O)N1CCC[C@@H](Nc2cc(CN3CCOCC3)cc(Nc3ncc(C)s3)n2)C1` [Example 4, (R)-1-(3-((6-((5-methylthiazol-2-yl)amino)-4-(morpholinomethyl)pyridin-2-yl)amino)piperidin-1-yl) prop-2-en-1-one], the IC50 in assay [1] was found to be 1.6 nM; in assay [2], 0.4 nM.

With `C=CC(=O)N1CCC[C@H](Nc2cc(CN3CCOCC3)cc(Nc3ncc(C)s3)n2)C1` [Example 5, (S)-1-(3-((6-((5-methylthiazol-2-yl)amino)-4-(morpholinomethyl)pyridin-2-yl)amino)piperidin-1-yl) prop-2-en-1-one], the figures for the 50% inhibitory concentration (IC50) in assay [1] and in assay [2] were over 200 nM and 152 nM, respectively.

Take `C=CC(=O)N1CC[C@@H](Nc2cc(CN3CCOCC3)cc(Nc3ncc(C)s3)n2)C1` [Example 6, (R)-1-(3-((6-((5-methylthiazol-2-yl)amino)-4-(morpholinomethyl)pyridin-2-yl)amino)pyrrolidin-1-yl) prop-2-en-1-one]: the IC50 is 36 nM in assay [1] and 27.7 nM in assay [2].

As to `C=CC(=O)N1CC[C@H](Nc2cc(CN3CCOCC3)cc(Nc3ncc(C)s3)n2)C1` [Example 7, (S)-1-(3-((6-((5-methylthiazol-2-yl)amino)-4-(morpholinomethyl)pyridin-2-yl)amino)pyrrolidin-1-yl) prop-2-en-1-one], the figures for the IC50 in assay [1] and in assay [2] were 3.5 nM and 3.6 nM, respectively.

For the compound `C=CC(=O)N1CCC(Nc2cc(CN3CCOCC3)nc(Nc3ncc(C)s3)n2)C1` (stereo not shown) [Example 8, 1-(3-((2-((5-methylthiazol-2-yl)amino)-6-(morpholinomethyl)pyrimidin-4-yl)amino)pyrrolidin-1-yl) prop-2-en-1-one], the IC50 in assay [1] came to 71.7 nM; in assay [2], 72.5 nM.

With `C/C=C/C(=O)N1CCC(Nc2cc(CN3CCOCC3)nc(Nc3ncc(C)s3)n2)C1` (stereo not shown) [Example 9, (E)-1-(3-((2-((5-methylthiazol-2-yl)amino)-6-(morpholinomethyl)pyrimidin-4-yl)amino)pyrrolidin-1-yl) but-2-en-1-one], the IC50 in assay [1] and in assay [2] was over 1000 nM in each case.

As for `C=CC(=O)N1CCC(Oc2cc(CN3CCOCC3)cc(Nc3ncc(C)s3)n2)C1` (stereo not shown) [Example 10, 1-(3-((6-((5-methylthiazol-2-yl)amino)-4-(morpholinomethyl)pyridin-2-yl)oxy)pyrrolidin-1-yl) prop-2-en-1-one], the figures for the half-maximal inhibitory concentration (IC50) in assay [1] and in assay [2] were over 40 nM and 2.4 nM, respectively.

Consider `CC#CC(=O)N1CCC(Nc2cc(CN3CCOCC3)cc(Nc3ncc(C)s3)n2)CC1` [Example 19, 1-(4-((6-((5-methylthiazol-2-yl)amino)-4-(morpholinomethyl)pyridin-2-yl)amino)piperidin-1-yl) but-2-yn-1-one], for which the IC50 in assay [2] came out at 875 nM.

`CC#CC(=O)N1CCC[C@H](Nc2nc(CN3CCOCC3)cc(Nc3ncc(C)s3)n2)C1` [Example 23, (S)-1-(3-((4-((5-methylthiazol-2-yl)amino)-6-(morpholinomethyl)pyrimidin-2-yl)amino)piperidin-1-yl) but-2-yn-1-one]: the IC50 in assay [2] was 36.6 nM.
